According to the supplement of paper PMC9663587:

How the values were obtained:
Assay in all cases: GRmax, 72 h; higher = less effect;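 note: breast cell lines in 384-well plates, nine doses across a 10^4 range, Dye Drop imaging of viable cells vs DMSO and time-zero plates, GR 0 means no net growth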
[1] = tested on: SUM1315
[2] = tested on: BT549
[3] = tested on: 184A1
[4] = tested on: MCF10A
[5] = tested on: MDAMB330
[6] = tested on: SUM52PE
[7] = tested on: MDAMB175VII
[8] = tested on: MCF12A
[9] = tested on: T47D
[10] = tested on: CAMA1
[11] = tested on: HCC1419
[12] = tested on: HTERT_HME1
[13] = tested on: MGH312

SMILES	GRmax, 72 h [1] [GR]	GRmax, 72 h [2] [GR]	GRmax, 72 h [3] [GR]	GRmax, 72 h [4] [GR]	GRmax, 72 h [5] [GR]	GRmax, 72 h [6] [GR]	GRmax, 72 h [7] [GR]	GRmax, 72 h [8] [GR]	GRmax, 72 h [9] [GR]	GRmax, 72 h [10] [GR]	GRmax, 72 h [11] [GR]	GRmax, 72 h [12] [GR]	GRmax, 72 h [13] [GR]
CO[C@H]1C[C@@H]2CC[C@@H](C)[C@@](O)(O2)C(=O)C(=O)N2CCCC[C@H]2C(=O)O[C@H]([C@H](C)C[C@@H]2CC[C@@H](OCCO)[C@H](OC)C2)CC(=O)[C@H](C)/C=C(\C)[C@@H](O)[C@@H](OC)C(=O)[C@H](C)C[C@H](C)/C=C/C=C/C=C/1C [Everolimus] (max 10 µM)	0.402	0.52	0.501	0.789	-0.378	0.553	-0.189	0.571	0.297	0.164	0.18	0.489	0.148
CCC(=O)Nc1ccc(C(=O)Nc2ccc(Nc3ncc4c(n3)N(C)c3ccc(C)cc3C(=O)N4C)cc2)cc1 [FMF-03-145-1]	-0.274	-0.0339	-0.0063	-0.0249	-0.0541	0.0118	0.0817	0.0223	-0.0373	0.0253	0.387	-0.0813	-0.365
COc1cc(N2CCN(C)CC2)ccc1Nc1ncc2c(n1)N(C)c1ccccc1C(=O)N2CC(F)(F)F [FMF-03-146-1]	0.824	0.839	1.04	0.99	0.866	1.04	0.887	0.95	0.683	0.82	0.805	0.785	0.866
CN1CC[C@H](c2c(O)cc(O)c3c(=O)cc(-c4ccccc4Cl)oc23)[C@H](O)C1 [Flavopiridol] (max 1 µM)	-0.887	-0.44	-0.329	-0.67	-0.892	-0.193	-0.309	-0.15	-0.134	-0.13	-0.263	-0.408	-0.945
CC(C)n1nc(-c2ccc3oc(N)nc3c2)c2c(N)ncnc21 [INK128/MLN0128] (max 3.162 µM)	0.0256	0.0717	0.139	0.172	-0.77	-0.161	-0.886	0.103	-0.0486	-0.0962	-0.147	0.197	-0.89
CC(C)NC[C@@H](C(=O)N1CCN(c2ncnc3c2[C@H](C)C[C@H]3O)CC1)c1ccc(Cl)cc1 [Ipatasertib/GDC0068] (max 10 µM)	0.607	0.496	0.631	0.647	-0.657	0.271	-0.5	0.654	0.133	-0.236	0.505	0.635	-0.936
CN(C)C(=O)c1cc2cnc(Nc3ccc(N4CCNCC4)cn3)nc2n1C1CCCC1 [LEE011/Ribociclib] (max 10 µM)	0.444	0.97	0.11	0.434	0.157	0.528	0.159	0.789	0.15	0.122	0.547	0.292	0.894
CCNC(=O)c1noc(-c2cc(C(C)C)c(O)cc2O)c1-c1ccc(CN2CCOCC2)cc1 [Luminespib/NVP-AUY922] (max 1 µM)	-0.081	-0.106	0.0336	-0.172	-0.344	-0.0956	-0.455	-0.316	0.0212	-0.0698	-0.297	-0.335	-0.685
CCOc1cc2ncc(C#N)c(Nc3ccc(OCc4ccccn4)c(Cl)c3)c2cc1NC(=O)/C=C/CN(C)C [Neratinib/HKI272] (max 3.162 µM)	0.114	0.208	0.162	0.0959	-0.655	0.491	-0.979	0.103	0.195	0.449	-0.501	0.0983	-0.278
O=C(c1cc(Cc2n[nH]c(=O)c3ccccc23)ccc1F)N1CCN(C(=O)C2CC2)CC1 [Olaparib/AZD2281] (max 10 µM)	0.0911	0.543	0.563	0.794	0.46	0.88	0.466	0.832	0.53	0.679	0.632	0.591	0.537
CC(=O)O[C@H]1C(=O)[C@@]2(C)[C@H]([C@H](OC(=O)c3ccccc3)[C@]3(O)C[C@H](OC(=O)[C@H](O)[C@@H](NC(=O)c4ccccc4)c4ccccc4)C(C)=C1C3(C)C)[C@]1(OC(C)=O)CO[C@@H]1C[C@@H]2O [Paclitaxel] (max 1 µM)	-0.326	-0.207	-0.268	-0.126	-0.438	-0.401	-0.469	-0.124	-0.134	-0.494	0.214	-0.224	-0.508
CS(=O)(=O)N1CCN(Cc2cc3nc(-c4cccc5[nH]ncc45)nc(N4CCOCC4)c3s2)CC1 [Pictilisib/GDC0941] (max 10 µM)	0.13	0.146	0.0537	0.193	-0.817	-0.205	-0.903	0.331	-0.147	-0.237	-0.21	0.126	-0.923
O=C1NC(=NCc2cccs2)SC1=Cc1ccc2ncccc2c1 [R0-3306] (max 10 µM)	-0.252	-0.0782	-0.142	-0.0081	-0.159	0.114	-0.0257	0.458	-0.0261	0.0254	0.246	-0.107	-0.249
CNCc1ccc(-c2[nH]c3cc(F)cc4c3c2CCNC4=O)cc1 [Rucaparib] (max 10 µM)	0.0259	0.91	0.748	0.874	0.423	0.961	0.56	0.825	0.854	0.789	0.855	0.785	0.569
CC1(N)CCN(c2cnc(-c3cccc(Cl)c3Cl)c(N)n2)CC1 [SHP099] (max 10 µM)	0.523	0.825	0.279	0.571	0.444	0.937	-0.0734	0.929	0.879	0.779	0.819	0.606	0.976
CN1CCN(CCOc2cc(OC3CCOCC3)c3c(Nc4c(Cl)ccc5c4OCO5)ncnc3c2)CC1 [Saracatinib/AZD0530] (max 10 µM)	0.0846	0.556	0.24	0.148	0.0209	0.486	-0.935	0.414	0.389	0.774	-0.115	0.46	-0.401
Cc1cc(C(C)Nc2ccccc2)c2nc(N3CCOCC3)cc(=O)n2c1 (centres undefined) [TGX221] (max 10 µM)	0.705	0.81	1	0.951	0.858	0.755	0.886	1.05	0.799	0.85	0.794	1.03	-0.158
CN(C)C/C=C/C(=O)Nc1ccc(C(=O)Nc2cccc(Nc3ncc(Cl)c(-c4c[nH]c5ccccc45)n3)c2)cc1 [THZ1] (max 1 µM)	-0.906	-0.312	-0.232	-0.525	-0.945	-0.437	-0.438	-0.312	-0.279	-0.486	-0.386	-0.455	-0.939
CN(C)C/C=C/C(=O)Nc1ccc(C(=O)N2CCC[C@@H](Nc3ncc(Cl)c(-c4c[nH]c5ccccc45)n3)C2)cc1 [THZ531] (max 1 µM)	-0.602	-0.349	-0.377	-0.625	-0.968	-0.17	-0.662	-0.0737	-0.141	-0.398	-0.294	-0.217	-0.947
CN(C)C/C=C/C(=O)Nc1ccc(C(=O)Nc2cccc(Nc3cc(-c4c[nH]c5ccccc45)ncn3)c2)cc1 [THZ-P1-2] (max 10 µM)	-0.299	0.175	-0.344	-0.181	-0.777	-0.598	-0.765	0.364	-0.453	-0.626	-0.578	0.566	-0.983
Cc1nc(-c2cn3c(n2)-c2ccc(-c4cnn(C(C)(C)C(N)=O)c4)cc2OCC3)n(C(C)C)n1 [Taselisib/GDC0032] (max 10 µM)	0.0942	0.095	0.0652	0.0593	-0.924	-0.0187	-0.937	0.074	-0.105	-0.152	-0.405	0.0336	-0.927
O=C1NC(=O)[C@@H](c2cn3c4c(cccc24)CCC3)[C@@H]1c1c[nH]c2ccccc12 [Tivantinib/ARQ197] (max 10 µM)	-0.43	-0.265	-0.121	-0.15	-0.321	-0.354	-0.296	-0.0779	-0.154	-0.566	0.163	-0.161	-0.537
Nc1ccc(-c2ccc3ncc4ccc(=O)n(-c5cccc(C(F)(F)F)c5)c4c3c2)cn1 [Torin2] (max 1 µM)	-0.0903	-0.0209	0.0958	0.128	-0.84	-0.351	-0.945	0.0112	0.0099	-0.147	-0.372	0.0764	-0.772
